We go through 5 molecules from US12258422B2, “Cyclopeptide and method for preparing the same” (NATIONAL TSING HUA UNIVERSITY, priority 2020, dated 2025).

Where “and” joins values, the source holds several entries; their conditions need not be identical. Identical values can stand only once.

The subject of series [1] is MMP-1. The series is described as follows: MMP-1 inhibition test: TNF-α-induced MMP-1 level in skin fibroblasts, ELISA. Type of series: cell-based, human. Conditions: for inhibition of MMP-1: compared to 3.3 μM of RA (set as 100%); for IC50: Hs68, TNF-α induced, calculated from inhibition rate vs concentration (FIG. 1, FIG. 2); for MMP-1 Conc.: TNF-α 20 ng/mL, Hs68. As to the method:
Matrix Metalloproteinase-1 (MMP-1) is one of collagenases, and is involved in the degradation of the extracellular matrix (ECM). In details, fibroblasts result in the overexpression of MMP-1 after exposure to UV-containing sunlight, so that the ECM is then degraded by MMP-1.
To examine the effect of the cyclopeptide of the present disclosure, a series of MMP-1 inhibition test was conducted.
In this test, test compound and human fibroblasts were co-cultured, and cytokine tumor necrosis factor-α (TNF-α) was added as an inducer to induce the expression of MMP-1 to a high level. Then, the test compound was evaluated for the ability of reducing the MMP-1 level induced by TNF-α.
Test compound: cyclopeptide (III-3) of the present disclosure, in which Q is Cl.
Cell Line: Skin Fibroblast Hs68
First, the seeding of skin fibroblast Hs68 cells onto culture medium dish was conducted overnight, and then different concentrations (0.05 μM, 0.25 μM, 1.25 μM, 2.5 μM and 5 μM) of cyclopeptide (III-3) were added to the skin fibroblast cells for 6 hours, which was further incubated with TNF-α (20 ng/mL) for 42 hours.

Series [2] has as its system hs68 human fibroblasts. The series is described as follows: Procollagen Type I C-Peptide (PIP) EIA, induction of procollagen secretion. The series is classed as cell-based. From the text:
(§1) Type I collagen is the primary component of the skin dermis. Both the quantity and quality of extracellular collagen are primarily related to skin ageing. The present embodiment was examined, by using Procollagen Type I C-Peptide (PIP) EIA Kit, effects of induction of procollagen secretion and cytotoxicity in respect of hs68 human fibroblasts.

The test system of series [3] is hs68 human fibroblasts. The series is described as follows: Cytotoxicity (cell viability) in anti-aging evaluation. Conditions: TGFβ; (sample/control) × 100%. The series is classed as cell-based.
Source text: as §1

Experiment in series [4]: as above
Conditions: human, hs68 human fibroblasts, (sample/control) × 100%. Type of series: cell-based, human.
Source text: as §1

On to `CC(C)[C@H]1CC[C@H](C)CC12NC(=O)[C@@H](Cc1ccccc1)NC(=O)[C@H](CC(=O)O)NC(=O)CNC(=O)[C@H](CCCNC(=N)N)NC2=O` (stereo partly drawn) [III-3], for which the “inhibition of MMP-1” value is “about 60%” in series [1] (0.05 μM), “about 80%” in series [1] (0.25 μM), roughly 87% in series [1] (1.25 μM) and roughly 91% in series [1] (2.5 μM). The half-maximal inhibitory concentration (IC50) in series [1] was 20 nM. Further, the “MMP-1 Conc.” value in series [1] (cyclopeptide 0.05 μM) amounted to 337.8 pg/mL; in series [1] (cyclopeptide 0.25 μM) it was 244.2 pg/mL; in series [1] (cyclopeptide 1.25 μM) it was 212.7 pg/mL; in series [1] (cyclopeptide 2.5 μM) it was 194.2 pg/mL; in series [1] (cyclopeptide 5 μM) it was 168.6 pg/mL.

On to TGFβ [reference compound], for which, in series [2] (TGFβ 0.83 μM), the “Procollagen Type I” value came to 320 ng/mL. Further, the Cell viability in series [3] is 95%.

`CC1=C(/C=C/C(C)=C/C=C/C(C)=C/C(=O)O)C(C)(C)CCC1` [RA, retinoic acid, reference compound]: in series [1] (RA 3.3 μM (positive control)), the “MMP-1 Conc.” value is 155.9 pg/mL and 271.3 pg/mL.

As for `N=C(N)NCCC[C@@H]1NC(=O)C2(CCNCC2)NC(=O)[C@@H](Cc2ccccc2)NC(=O)[C@H](CC(=O)O)NC(=O)CNC1=O` [III-1], the “inhibition of MMP-1” value is on record as 12% in series [1] (0.05 μM), 38% in series [1] (0.25 μM) and 90% in series [1] (1.25 μM). The IC50 in series [1] was 700 nM. In addition, the “MMP-1 Conc.” value is listed as 422.3 pg/mL in series [1] (cyclopeptide 0.05 μM), 378.2 pg/mL in series [1] (cyclopeptide 0.25 μM), 288.0 pg/mL in series [1] (cyclopeptide 1.25 μM) and 271.8 pg/mL in series [1] (cyclopeptide 2.5 μM).

Take `N=C(N)NCCC[C@@H]1NC(=O)C2(CCCCC2)NC(=O)[C@@H](Cc2ccccc2)NC(=O)[C@H](CC(=O)O)NC(=O)CNC1=O` [III-5]: the “Procollagen Type I” value in series [2] (cyclopeptide 0.0008 μM) turned out to be 235 ng/mL; in series [2] (cyclopeptide 0.004 μM), 225 ng/mL; in series [2] (cyclopeptide 0.02 μM), 220 ng/mL; in series [2] (cyclopeptide 0.1 μM) it was 208 ng/mL; in series [2] (cyclopeptide 0.25 μM) it was 208 ng/mL; in series [2] (cyclopeptide 0.5 μM), 184 ng/mL. In series [4] (cyclopeptide 0.0008 μM), this molecule gave a viability at 0.0008 µM of 92%. For the same molecule, the viability at 0.004 µM in series [4] (cyclopeptide 0.004 μM) was found to be 97%. Moreover, in series [4] (cyclopeptide 0.02 μM), the viability at 0.02 µM was found to be 100%. The same molecule returned a viability at 0.1 µM in series [4] (cyclopeptide 0.1 μM) of 97%. The molecule also displayed a viability at 0.25 µM in series [4] (cyclopeptide 0.25 μM) of 99%. The molecule further gave a viability at 0.5 µM in series [4] (cyclopeptide 0.5 μM) of 100%.

In general, IC50 refers to the concentration that gives 50% inhibition. What is called viability is a read-out of living cells in per cent, often relative to untreated cells. A higher viability goes with less harm to the cells.
